These results are taken from article PMC10132233 (Journal of Enzyme Inhibition and Medicinal Chemistry, 2023).

Assay [1] addresses T1, cyclin-dependent kinase 2 (CDK2) (Homo sapiens, UniProt P24941).
T1 construct: purchased Reaction Biology Co. (Malvern, PA)
Briefly: Small kinase panel, CDK2. The class given is biochemical. The settings on record: read-out: % kinase inhibition (relative to DMSO control) CDK2. As for the experimental part: (§1) Enzyme inhibitory assays were carried out as described in our previous reports in the literature. […] The HotSpot assay platform includes specific kinase/substrate pairs and required cofactors. The base reaction buffer consisted of 20 mM Hepes (pH 7.5), 10 mM MgCl2, 1 mM EGTA, 0.02% Brij35, 0.02 mg/mL BSA, 0.1 mM Na3VO4, 2 mM DTT, and 1% DMSO. The tested compounds were dissolved in 100% DMSO to a specific concentration, and serial dilution was conducted. The reaction mixture containing the tested compound and 33P-ATP was incubated at room temperature for 2 h, and radioactivity was detected using the filter-binding method.

In assay [2] the target is T2, fibroblast growth factor receptor 1 (FGFR1) (Homo sapiens, UniProt P11362).
T2 construct: purchased Reaction Biology Co. (Malvern, PA)
Briefly: Small kinase panel, FGFR1. The class given is biochemical. The settings on record: read-out: % kinase inhibition (relative to DMSO control) FGFR1. As for the experimental part: as §1

Assay [3] concerns the target T3, vascular endothelial growth factor receptor 2 (VEGFR2) (Homo sapiens, UniProt P35968).
T3 construct: purchased Reaction Biology Co. (Malvern, PA)
The assay can be described thus: Small kinase panel, VEGFR2. In kind it is biochemical. The settings on record: read-out: % kinase inhibition (relative to DMSO control) VEGFR2. As for the experimental part:
as §1

Assay [4] has as its target T4, p38α mitogen-activated protein kinase (MAPK14) (Homo sapiens, UniProt Q16539).
T4 construct: purchased Reaction Biology Co. (Malvern, PA)
Briefly: Small kinase panel, MAPK14. As to conditions: read-out: % kinase inhibition (relative to DMSO control) MAPK14. The class given is biochemical. As for the experimental part:
as §1

The subject of assay [5] is PC3 prostate carcinoma cell line. The assay can be described thus: MTT cytotoxicity assay, PC3. The class given is cell-based. As to conditions: Homo sapiens, 24 h. An excerpt:
(§2) Accordingly, we aimed to investigate the cytotoxic potential of this new series against prostate carcinoma cell lines. […] The potent nanomolar cell-based activity of this series of compounds over the tested prostate carcinoma cell line could be attributed to other possible targets in addition to EGFR and HER2 receptors. The presence of the 2-nitroimidazole moiety in the chemical structure of compounds 9a–h could develop possible covalent bonds between the nitroimidazole moiety and some cellular proteins.
(§3) Prostate cancer cell lines (PC3 and 22RV1) of American Type Culture Collection (ATCC) were obtained from Korean Cell Center (KCL). PC3 and 22RV1 cell lines were cultured in Roswell Park Memorial Institute Medium (RPMI) 1640 and Dulbecco’s modified Eagle’s medium (DMEM) (GenDepot, Barker, TX) supplemented with 1% penicillin–streptomycin and 10% foetal bovine serum (FBS). The cells were maintained at 37 °C in a 5% CO2 with a 95% humid atmosphere.
(§4) To further analyse the intracellular cytotoxicity effect of the as-synthesised compounds, MTT assay was performed. Moreover, the experiments were divided into subcategories. In each group, cancer cells were first seeded in 96-well plates (4 × 10^4 cells per well) and then incubated for 24 h at 37 °C in a 5% CO2-containing atmosphere. Subsequently, the medium from the culture plate was removed, and 100 µL of RPMI media containing different concentrations of compounds (0.01, 0.005, 0.0025, 0.00125, and 0.000625 µM) were then added into the cell lines in each well and incubated for 24 h in a 5% CO2 humidified incubator at 37 °C. Afterwards, MTT solution (150 μL, 1 mg/mL) was added to each well, replacing the media-containing compounds. After 4 h of incubation, the MTT reagent was removed, and 200 μL of DMSO was then added to dissolve the formazan crystals, and colour intensity was measured at a wavelength of 540 nm using a BioTek Synergy H1 instrument (BioTek, Winooski, VT). IC50 was calculated according to the equation of Boltzmann sigmoidal concentration–response curve using Graph Pad Prism 5 (La Jolla, CA).

For assay [6], the system named is 22RV1 prostate carcinoma cell line. Briefly: MTT cytotoxicity assay, 22RV1. The settings on record: Homo sapiens, 24 h. The class given is cell-based.
Source text: as §2, §3, §4

In another assay the test system is 22RV1 cells. Briefly: Cell cycle analysis (PI, ADAMII LS), 22RV1. The class given is cell-based, human. As to conditions: 22RV1, compound at its IC50, 24 h. As for the experimental part:
(§5) Cell cycle progression is responsible for normal cell growth and proliferation. DNA damage can result in apoptosis, which causes cell death, or DNA repair. At specific checkpoints that serve as control mechanisms to guarantee correct cell division, the state of the cells is evaluated. Checkpoints in the cell cycle include the G1 (restriction), S […], and G2/M[29]. Anticancer medications’ function is to halt cell division at these checkpoints. Treatment with potent cytotoxic (as an anticancer) agents can determine at which phase apoptosis occurs in the cell cycle. […] PC3 and 22RV1 cells were treated with compound 9f at its IC50. The comparison data in Table 6 and Figure 3 indicate that compound 9f (test 2) arrested the cell cycle of 22RV1 and PC3 cells at the G2/M phase by 62.74% and 49.43%, respectively (Figure 3). Also, the cell population in G1 and S phases decreases after treatment (test 2) compared to a negative control (test 1).
(§6) To determine the effect of the tested compound on the cell cycle distribution of PC3 and 22RV1 cell lines. Cell cycles can be analysed with checking the cell cycle change compared to the control group. Control cells without any treatment were used as a reference point for determining the cell cycle arrest phase for the test sample. Cell cycle analysis was performed using the Cell Cycle Analysis Kit (ADAMII LS, NanoEntek, Seoul, South Korea). Briefly, cancer cells were first seeded in six-well plates (0.8 × 10^6 cells per well) and then incubated for 24 h at 37 °C in a 5% CO2-containing atmosphere. […] 25 µL of sample mixture was loaded into ADAMII LS assay slide, then the slide was incubated at room temperature for 1 min in the dark and run on the ADAMII LS fluorescence cell analyser. Cell cycle distribution was calculated using ADAMII LS software (ADAMII LS, NanoEntek, Seoul, South Korea).

Another assay relates to PC3 cells. The assay can be described thus: Cell cycle analysis (PI, ADAMII LS), PC3. As to conditions: PC3, compound at its IC50, 24 h. The class given is cell-based, human. On the procedure: as §5, §6

T3 sequence (P35968 20-1356): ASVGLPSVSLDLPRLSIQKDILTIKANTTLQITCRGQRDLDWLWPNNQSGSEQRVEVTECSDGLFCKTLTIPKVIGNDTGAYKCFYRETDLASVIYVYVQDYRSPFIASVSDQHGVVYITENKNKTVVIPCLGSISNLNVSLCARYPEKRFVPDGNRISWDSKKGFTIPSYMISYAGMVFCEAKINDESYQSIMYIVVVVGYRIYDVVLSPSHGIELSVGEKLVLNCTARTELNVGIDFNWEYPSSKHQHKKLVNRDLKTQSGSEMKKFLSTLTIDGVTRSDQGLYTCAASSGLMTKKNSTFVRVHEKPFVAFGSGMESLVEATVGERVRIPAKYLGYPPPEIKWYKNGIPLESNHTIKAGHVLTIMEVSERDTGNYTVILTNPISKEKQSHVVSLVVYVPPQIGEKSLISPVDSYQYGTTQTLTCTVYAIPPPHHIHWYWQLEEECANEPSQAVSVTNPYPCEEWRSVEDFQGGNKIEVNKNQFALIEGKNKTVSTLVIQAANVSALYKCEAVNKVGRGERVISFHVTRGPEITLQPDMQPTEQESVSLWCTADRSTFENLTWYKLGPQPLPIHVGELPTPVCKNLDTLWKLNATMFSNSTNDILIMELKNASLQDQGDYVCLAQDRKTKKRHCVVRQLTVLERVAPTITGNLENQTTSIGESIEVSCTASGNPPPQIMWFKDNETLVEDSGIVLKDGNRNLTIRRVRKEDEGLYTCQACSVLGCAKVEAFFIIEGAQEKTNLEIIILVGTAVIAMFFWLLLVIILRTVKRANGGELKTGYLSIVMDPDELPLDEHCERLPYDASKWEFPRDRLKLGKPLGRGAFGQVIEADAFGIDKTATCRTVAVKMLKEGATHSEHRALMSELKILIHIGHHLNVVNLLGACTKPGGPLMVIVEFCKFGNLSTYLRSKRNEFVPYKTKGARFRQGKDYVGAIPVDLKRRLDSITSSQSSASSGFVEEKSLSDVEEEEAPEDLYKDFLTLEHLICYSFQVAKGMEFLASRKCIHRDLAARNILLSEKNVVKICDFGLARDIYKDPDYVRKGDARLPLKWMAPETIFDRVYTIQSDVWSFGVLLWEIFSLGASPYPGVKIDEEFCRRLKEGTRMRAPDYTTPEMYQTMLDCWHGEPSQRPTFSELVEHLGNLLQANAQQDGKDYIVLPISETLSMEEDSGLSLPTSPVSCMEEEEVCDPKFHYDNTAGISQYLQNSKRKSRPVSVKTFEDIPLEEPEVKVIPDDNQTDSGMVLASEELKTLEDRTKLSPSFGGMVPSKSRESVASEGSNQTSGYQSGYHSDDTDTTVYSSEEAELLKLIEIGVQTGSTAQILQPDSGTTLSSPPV
T2 sequence (P11362 22-822): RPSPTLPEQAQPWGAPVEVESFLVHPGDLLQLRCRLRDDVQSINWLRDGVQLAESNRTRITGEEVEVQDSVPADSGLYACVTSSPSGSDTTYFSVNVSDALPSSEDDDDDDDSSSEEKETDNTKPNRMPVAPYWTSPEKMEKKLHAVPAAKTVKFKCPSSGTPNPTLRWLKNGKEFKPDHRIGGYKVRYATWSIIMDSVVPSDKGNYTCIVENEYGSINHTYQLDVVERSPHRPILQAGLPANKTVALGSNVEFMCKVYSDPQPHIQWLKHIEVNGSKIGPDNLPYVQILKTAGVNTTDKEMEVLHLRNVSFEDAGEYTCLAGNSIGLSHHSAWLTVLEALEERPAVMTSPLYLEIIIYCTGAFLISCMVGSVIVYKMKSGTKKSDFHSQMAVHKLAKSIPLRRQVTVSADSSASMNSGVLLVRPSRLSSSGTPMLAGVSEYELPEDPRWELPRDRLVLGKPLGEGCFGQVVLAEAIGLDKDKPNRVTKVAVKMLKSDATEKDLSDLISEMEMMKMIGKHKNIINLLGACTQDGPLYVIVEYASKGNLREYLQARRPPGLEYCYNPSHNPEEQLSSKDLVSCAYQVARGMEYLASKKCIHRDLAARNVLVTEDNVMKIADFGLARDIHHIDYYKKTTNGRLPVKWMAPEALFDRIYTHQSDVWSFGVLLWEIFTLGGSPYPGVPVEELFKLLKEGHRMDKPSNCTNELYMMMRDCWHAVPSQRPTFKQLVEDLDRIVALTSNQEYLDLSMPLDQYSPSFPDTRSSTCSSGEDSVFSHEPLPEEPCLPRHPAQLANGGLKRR
T4 sequence (Q16539 whole entry): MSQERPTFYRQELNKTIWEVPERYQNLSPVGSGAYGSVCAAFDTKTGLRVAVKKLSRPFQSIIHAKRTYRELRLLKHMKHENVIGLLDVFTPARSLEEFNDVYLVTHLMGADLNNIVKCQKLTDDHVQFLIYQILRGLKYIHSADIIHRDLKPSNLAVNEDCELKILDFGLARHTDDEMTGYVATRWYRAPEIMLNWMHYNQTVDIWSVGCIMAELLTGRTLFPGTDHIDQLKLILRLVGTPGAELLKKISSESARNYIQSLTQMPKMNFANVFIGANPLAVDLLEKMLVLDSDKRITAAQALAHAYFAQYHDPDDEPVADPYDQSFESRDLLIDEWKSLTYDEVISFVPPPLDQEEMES

For the compound `COc1cc2ncnc(Nc3ccc(Oc4cccc(C(F)(F)F)c4)c(Cl)c3)c2cc1OCCCCn1ccnc1[N+](=O)[O-]` [Compound 9f, N-(3-Chloro-4-(3-(trifluoromethyl)phenoxy)phenyl)-7-methoxy-6-(4-(2-nitro-1H-imidazol-1-yl)butoxy)quinazolin-4-amine], the inhibition at 10 µM in assay [1] is 0.8%; in assay [2], 5.54%; in assay [3] it was -4.46%; in assay [4] it was 24.3%. The IC50 in assay [5] was found to be 1 nM; in assay [6], 2.7 nM. The “G0/G1 phase Percent” value is on record as 6.08% with 22RV1 cells and 7.22% in the assay with PC3 cells. The “G2/M phase Percent” value in the assay on 22RV1 cells came to 62.74%; in the assay with PC3 cells, 49.43%. The “S phase Percent” value turned out to be 9.13% in the assay with 22RV1 cells and 28.14% with PC3 cells.
